Literature values in patent US20170015852A1, “INK COMPOSITION” (KERACOL LIMITED, priority 2014, published 2017).

Assays:
human health = conditions: toxicological reports; approved food colorants E100, E120, E163
rats = conditions: high doses

solubility in ethanol [% w/v]	SMILES	threat to human health (human health)	carcinogenicity (rats)
	Cc1c(C(=O)O)c(O)cc2c1C(=O)c1c(O)c([C@@H]3O[C@H](CO)[C@@H](O)[C@H](O)[C@H]3O)c(O)c(O)c1C2=O [carminic acid]	pose no threat to human health	
0.79	O=C1OC2(c3ccccc31)c1cc(I)c(O)c(I)c1Oc1c2cc(I)c(O)c1I [erythrosine]		cause cancer
